According to patent publication US20210139610A1, “COMPOSITIONS AND METHODS FOR MEDIATING EPS” (priority 2018, published 2021):
Entries after “also recorded” stand apart in the source; their conditions may differ.

Assays:
[1] = system: Z-DNA and B-DNA in the NTHI biofilm extracellular matrix; experiment: Immunofluorescence CLSM for Z-DNA / B-DNA in NTHI biofilms; type: cell-based, Non-typeable Haemophilus influenzae; details: 24 h biofilm + 16 h with agent (1 mM CeCl3; 1 μM chloroquine)
Procedure: FIG. 31: DNase degrades B-DNA, but not Z-DNA, within the biofilm extracellular matrix. DNase (Pulmozyme; 5 units) was added at 24 h after biofilm seeding to in vitro pre-formed NTHI biofilms.
FIG. 37: HMGB1 destabilizes Z-DNA structures in the biofilm extracellular matrix. Non-typeable Haemophilus influenzae biofilms were grown in supplemented BHI media in 8 well chambered coverglass slides at 37° C. and 5% CO2. After 24 h, biofilms were treated as indicated above. After 40 h, biofilms were washed, probed with primary antibodies directed against Z-DNA (light gray dots), a fluorescent secondary antibody, stained with DAPI (gray regions), and visualized via fluorescence microscopy.
FIGS. 50A-50B: Equilibrium shift of B-DNA to Z-DNA conversion alters biofilm formation. NTHI biofilms formed for 24 h were incubated with cerium chloride (CeCl3) or chloroquine for an additional 16 h and were probed with naive or anti-Z-DNA (white) by immunofluorescence CLSM.
FIGS. 51A-51B: Equilibrium shift of B-DNA to Z-DNA conversion alters biofilm formation. NTHI biofilms formed for 24 h were incubated with cerium chloride (CeCl3) (FIG. 51A) or chloroquine (FIG. 51B) for an additional 16 h. Z-DNA was measured by IF and CLSM using anti-Z-DNA and cells were stained with the membrane stain FM4-64. Bars represent the SEM. Statistical significance compared to control was assessed by paired t-tests, *P<0.05, **P<0.01.

preformed NTHI biofilms [2] = experiment: Disruption of pre-formed NTHI biofilms (treatment after initial growth; LIVE/DEAD, CLSM, COMSTAT); type: cell-based, Non-typeable Haemophilus influenzae; details: 24 h biofilm + 16 h with CeCl3 or chloroquine
genomic DNA / poly(dGdC) = experiment: A260/295 absorbance ratio assay of B-DNA to Z-DNA conversion; type: biochemical
Procedure: In one aspect, the agents are administered in the absence of a DNAse. Left: Genomic DNA (2 μg/mL) was incubated with spermidine (spd:300 μM), HU (500 nM), a combination of both spd and HU for 2 h at 37° C. Incubation of gDNA with 3.6M NaCl was used as a positive Z-DNA control. Middle: gDNA (2 μg/mL) was incubated with increased concentrations of Cerium chloride (CeCl3) which is known to induce Z-DNA. Right: poly(dGdC) (1 μg) was incubated with either NaCl (3.6 M), chloroquine (100 μM), or a combination of both NaCl and chloroquine. […] The absorbance values at 260 nm and 295 nm were measured and the A260/295 ratio was calculated. A ratio >8.6 is indicative of B-DNA, while a value near 3.2 is indicative of Z-DNA.

preformed NTHI biofilms [3] = experiment: Disruption of pre-formed NTHI biofilms (treatment after initial growth; LIVE/DEAD, CLSM, COMSTAT); type: cell-based, Non-typeable Haemophilus influenzae; details: 1% P11
Procedure: (FIG. 18A) Biofilm growth was initiated then maintained for 24 hrs then treated for 16 hrs with 0 (SBHI Control), 0.1%, 1%, and 5% (w/v) of Phoshocellulose (P11). (FIG. 18B) Biofilm growth was initiated then maintained for 40 hrs in the presence of 0 (sBHI Control), 0.1%, 1%, and 5% (w/v) of (P11). Biofilms were washed with saline and stained with LIVE/DEAD® stain. Images were analyzed by COMSTAT to calculate average thickness and biomass. All images were captured with a 63× objective.
21:65-7. Pulmozyme® was added either at seeding (biofilm prevention) or to pre-formed biofilms (biofilm disruption) (FIG. 6). The resultant biofilms were stained with LIVE/DEAD® and evaluated using CLSM and COMSTAT analysis.
To determine anti-biofilm activity of cation exchange resins on preformed biofilms (i.e. ability to disrupt an extant biofilm), NTHI growth was initiated and maintained for 24 hrs, then treated for 16 hrs with 0 (sBHI Control), 0.1, 1, or 5% (w/v) of P11 phosphocellulose (FIG. 18A). To determine the anti-biofilm activity of cation exchange resins to prevent biofilm formation, NTHI growth was initiated and maintained in the presence of 0 (sBHI Control), 0.1, 1, and 5% w/v of P11 phosphocellulose (FIG. 18B) or 5% (w/v) heparin sepharose (FIG. 19). Biofilms were washed with saline and stained with LIVE/DEAD®, visualized with confocal scanning microscopy (CSLM) and analyzed by COMSTAT to determine average thickness and biomass.

NTHI biofilms = experiment: Transwell assay: NTHI biofilm in basolateral chamber, P11 resin in apical chamber; type: cell-based, Non-typeable Haemophilus influenzae
Procedure: (FIG. 42A) NTHI biofilm growth was initiated at 37° C., 5% CO2 in the basolateral chamber of a transwell plate system whereas P11 resin was added to the apical chamber, and incubated for 16 h. (FIG. 42B) Biofilms were stained, fixed, visualized via CLSM, and analyzed by COMSTAT. […] (FIG. 42C) Spermidine (Spd, 300 μM) and HU (500 nM) were added at seeding.
To determine the effect of P11 sequestration of these molecules on bacterial biofilm formation, Applicants utilized a transwell system. NTHI growth was initiated in the basolateral chamber while P11 (1% w/v) was added to the apical chamber at seeding. At 16 h, the biofilms were washed and stained with LIVE/DEAD®, imaged using CLSM, and analyzed with COMSTAT. […] To determine whether P11 cation depletion included polyamines and/or DNABII proteins, NTHI growth was initiated in the basolateral chamber with the exogenous addition of 1 mM spermidine and 1 μM HU, while P11 was added at 1% w/v to the apical chamber.
To determine whether the decrease in biofilm formation was dependent on direct cellular contact, NTHI growth was initiated in the basal chamber of a transwell plate system that contained a 0.4 μm pore size within the membrane that separates the apical and basolateral chambers. This allows for the diffusion of small molecules e.g. proteins (DNABII), polyamines and divalent metal cations between the two chambers, but not bacterial cells. […] Biofilms were washed with saline and stained with LIVE/DEAD®, visualized with CSLM and analyzed by COMSTAT to determine average thickness and biomass.
To determine whether polyamines (spermidine) are depleted by P11 phosphocellulose without direct contact in the transwell system, NTHi growth was initiated in the basolateral chamber containing 0, 100, 500, or 1000 μM Spermidine, while 0 (sBHI control) or 1.5% (w/v) P11 phosphocellulose was added to the apical chamber and maintained for 16 hrs. Biofilms were washed with saline and stained with LIVE/DEAD®, visualized with CSLM and analyzed by COMSTAT to determine average thickness and biomass. […]

[4] = system: Non-typeable Haemophilus influenzae biofilms; experiment: NTHI in vitro biofilm formation, additive present from seeding (LIVE/DEAD, CLSM, COMSTAT); type: cell-based; details: 1 mM exogenous spermidine plus DCHA 50 μM
Procedure: FIG. 14: Non-typeable Haemophilus influenzae biofilms were grown for 40 h in supplemented BHI medium containing additives as indicated below each bar in 8 well chambered coverglass slides at 37° C. and 5% CO2. Biofilms were washed, stained with LIVE/DEAD®, fixed, and imaged by CLSM. Biofilm parameters were quantified using COMSTAT software.
Dicyclohexylamine inhibits spermidine synthase via a competitive inhibition mechanism, i.e. through binding to the same site on the protein as the putrescine substrate. Applicants therefore hypothesized that dicyclohexylamine would inhibit NTHi biofilm development. […]

NTHI genomic DNA (gDNA) = experiment: Protection of genomic DNA from DNase digestion (agarose gel); type: biochemical, Non-typeable Haemophilus influenzae; details: DNase 0.5 units
Procedure: (FIG. 7C) Increasing levels of spermidine (Spd) and HU, separately or together, were incubated with genomic DNA (2 μg/ml) for 1.5 h at 37° C., followed by treatment with Pulmozyme® for 20 min. DNA degradation was assayed using agarose gel electrophoresis. […] (FIG. 7D) Spd (300 μM) and HU (1 μM) were incubated with genomic DNA (2 μg/ml) for 40 h, followed by Pulmozyme® treatment for 20 min.
To test synergism in vitro, Applicants incubated NTHI genomic DNA (gDNA) with spermidine (10, 20, 50, or 100 μM) in the presence or absence of HU (50 or 100 nM) and DNase (0.5 units). Degradation was assessed by agarose gel electrophoresis and UV illumination.

[5] = system: NTHI biofilms in the middle ear; experiment: Chinchilla model of otitis media due to NTHI, middle ear biofilm scoring; type: in vivo; details: 5 μg to middle ears at 4 and 5 days post infection, scored 24 h later
Procedure: FIGS. 39A-39B: HMGB1 promotes biofilm resolution in an experimental model (chinchilla host) of OM. Diluent or 5 μg rHMGB1 or mHMGB1 were delivered directly to middle ears of chinchillas at 4 and 5 days post infection with NTHI. Animals were sacrificed 24 h later, and their middle ears were imaged (FIG. 39A) and blindly scored (FIG. 39B) based on the criteria described in the bottom of (FIG. 39A). Bars represent SEM. ***P<0.001.

genomic DNA = experiment: Spermidine sensitivity of nucleases on genomic DNA; type: biochemical; details: Spermidine titrated from 10 μM-10 mM

## [Cl][Ce]([Cl])[Cl] [CeCl3, cerium chloride]
[1]
  Z-DNA abundance in NTHI biofilm: increased Z-DNA abundance
Preformed NTHI biofilms [2]
  NTHI biofilm formation / development: increased Z-DNA and biofilm formation
Genomic DNA / poly(dGdC); gDNA 2 μg/mL, spd 300 μM + HU 500 nM, 2 h at 37° C., or increased concentrations of CeCl3
  induction of Z-DNA in genomic DNA: synergized to induce Z-DNA

## [Cl-].[Cl-].[Mg+2] [MgCl2]
Preformed NTHI biofilms [3]; MgCl2 0-10 mM for 16 hrs
  compensation of phosphocellulose effect on NTHI biofilm: can partially compensate for the disruptive effect of phosphocellulose; also recorded: rescues the negative effect of phosphocellulose on NTHI biofilm stability

## CCN(CC)CCCC(C)Nc1ccnc2cc(Cl)ccc12 (centres unmarked) [chloroquine]
[1]
  Z-DNA abundance in NTHI biofilm: decreased Z-DNA abundance; also recorded: reduced Z-DNA
Preformed NTHI biofilms [2]
  NTHI biofilm formation / development: reduced Z-DNA and biofilm development
Genomic DNA / poly(dGdC); chloroquine 100 μM with NaCl 3.6 M
  B-DNA to Z-DNA transition of poly(dGdC): prevents the transition of B-DNA to Z-DNA

## NCCCCNCCCN [spermidine]
Preformed NTHI biofilms [3]; spermidine 0-5 mM for 16 hrs
  compensation of phosphocellulose effect on NTHI biofilm: can partially compensate for the negative effect of phosphocellulose
Preformed NTHI biofilms [3]; spermidine 0-5 mM for 16 hrs, listed as Spermidine
  compensation of phosphocellulose effect on NTHI biofilm: rescues the negative effect of phosphocellulose on NTHI biofilm stability
NTHI biofilms; 1% P11, 1 mM spermidine or 1 μM HU, data not shown
  restoration of P11-depleted biofilm by HU or spermidine individually: insufficient
NTHI biofilms; 1.5% P11, 100, 500 or 1000 μM spermidine, 16 hrs
  restoration of cation-depleted biofilms by spermidine alone: alone can restore cation-depleted biofilms in a dose-dependent manner; also recorded: reduces the cation depletion effects of P11 phosphocellulose
[4]
  rescue of biofilm formation in dicyclohexylamine-treated NTHI biofilms: defects in biofilm biogenesis could be compensated for; also recorded: restored normal biofilm thickness, biomass, and roughness; also recorded: able to rescue biofilm growth
[4]; listed as Spd
  rescue of biofilm formation in dicyclohexylamine-treated NTHI biofilms: restored biofilm formation
NTHI genomic DNA (gDNA)
  concentration protecting gDNA from DNase individually: > 100 µM
NTHI genomic DNA (gDNA); admixed with HU
  concentration inhibiting gDNA digestion synergistically when admixed: < 50 µM

B1: non-inflammatory HMGB1 variant: mHMGB1, a C45 S non-inflammatory variant (protein, UniProt P09429 1-215, looked up, variant C45S)
High mobility group protein B1: MGKGDPKKPRGKMSSYAFFVQTCREEHKKKHPDASVNFSEFSKKSSERWKTMSAKEKGKFEDMAKADKARYEREMKTYIPPKGETKKKFKDPNAPKRPPSAFFLFCSEYRPKIKGEHPGLSIGDVAKKLGEMWNNTAADDKQPYEKKAAKLKEKYEKDIAAYRAKGKPDAAKKGVVKAEKSKKKKEEEEDEEDEEDEEEEEDEEDEDEEEDDDDE
[5]
  resolution of middle ear NTHI biofilms: efficient resolution of adherent biofilms

B2: NucB: nuclease that prevents biofilm formation (Table 1) (protein, UniProt P42983 29-136, looked up)
Sporulation-specific …: SYDKVLYFPLSRYPETGSHIRDAIAEGHPDICTIDRDGADKRREESLKGIPTKPGYDRDEWPMAVCEEGGAGADVRYVTPSDNRGAGSWVGNQMSSYPDGTRVLFIVQ
Genomic DNA
  Spd inhibition: spermidine concentration where nuclease was reduced to <10% activity on genomic DNA: >10 mM
